Measurements as given in US20240190872A1, “FABI INHIBITORS FOR GRAM-NEGATIVE PATHOGENS” (THE BOARD OF TRUSTEES OF THE UNIVERSITY OF ILLINOIS, priority 2021, published 2024).
Values after ≈ are worked out from the molar mass of the structure shown.

Experiments:
Plasma stability = format: in vitro ADME
A. baumannii FabI = A. baumannii FabI (Acinetobacter baumannii, UniProt D0CAD5); test: biochemical
A. baumannii AR 0273 = test: microbe, parasite or virus in culture; format: cell-based; conditions: Acinetobacter baumannii, AR0273, read-out: MIC A. baumannii AR 0273, clinical isolate
Outline: (§1)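 Testing follows the Clinical and Laboratory Standards Institute micro-dilution protocol. Cultures are set up in cation-adjusted Mueller-Hinton broth. Three biological replicates are run.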

K. pneumoniae AR 0066 = test: microbe, parasite or virus in culture; format: cell-based; conditions: Klebsiella pneumoniae, AR0066, read-out: MIC K. pneumoniae AR 0066, clinical isolate
Outline: as §1

K. pneumoniae AR 0560 = test: microbe, parasite or virus in culture; format: cell-based; conditions: Klebsiella pneumoniae, AR0560, read-out: MIC K. pneumoniae AR 0560, clinical isolate
Outline: as §1

A. baumannii AR 0313 = test: microbe, parasite or virus in culture; format: cell-based; conditions: Acinetobacter baumannii, AR0313, read-out: MIC A. baumannii AR 0313, clinical isolate
Outline: as §1

A. baumannii AR 0033 = test: microbe, parasite or virus in culture; format: cell-based; conditions: Acinetobacter baumannii, AR0033, read-out: MIC A. baumannii AR 0033, clinical isolate
Outline: as §1

E. coli AR 0085 = test: microbe, parasite or virus in culture; format: cell-based; conditions: Escherichia coli, AR0085, read-out: MIC E. coli AR 0085, clinical isolate
Outline: as §1

E. coli AR 0048 = test: microbe, parasite or virus in culture; format: cell-based; conditions: Escherichia coli, AR0048, read-out: MIC E. coli AR 0048, clinical isolate
Outline: as §1

K. pneumoniae AR 0113 = test: microbe, parasite or virus in culture; format: cell-based; conditions: Klebsiella pneumoniae, AR0113, read-out: MIC K. pneumoniae AR 0113, clinical isolate
Outline: as §1

A. baumannii AR 0299 = test: microbe, parasite or virus in culture; format: cell-based; conditions: Acinetobacter baumannii, AR0299, read-out: MIC A. baumannii AR 0299, clinical isolate
Outline: as §1

H. sapiens A549 = test: In-vitro cytotoxicity; format: cell-based
E. coli ΔtolC (JW5503) = format: cell-based; conditions: efflux deficient E. coli ΔtolC
Outline: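 MICs by CLSI broth microdilution in cation-adjusted Mueller-Hinton broth, performed in biological triplicate. Strains: efflux-deficient E. coli ΔtolC (JW5503, KEIO collection) and K. pneumoniae BAA-2472 (ATCC).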

[1] = test system: 100 A. baumannii clinical isolates; test: MIC90 against 100 A. baumannii clinical isolates; format: cell-based; conditions: Acinetobacter baumannii
Method: Antimicrobial susceptibility tests. Susceptibility testing was performed in biological triplicate, using the micro-dilution broth method as outlined by the Clinical and Laboratory Standards Institute. Bacteria were cultured with cation-adjusted Muller-Hinton broth (Sigma-Aldrich, Cat# 90922) in round-bottom 96-well plates (Corning, Cat# 3788). Human serum (pooled gender, 0.2 μm filtered) was purchased from BioIVT (Hicksville, NY).

Chain of A. baumannii FabI (D0CAD5 1-288): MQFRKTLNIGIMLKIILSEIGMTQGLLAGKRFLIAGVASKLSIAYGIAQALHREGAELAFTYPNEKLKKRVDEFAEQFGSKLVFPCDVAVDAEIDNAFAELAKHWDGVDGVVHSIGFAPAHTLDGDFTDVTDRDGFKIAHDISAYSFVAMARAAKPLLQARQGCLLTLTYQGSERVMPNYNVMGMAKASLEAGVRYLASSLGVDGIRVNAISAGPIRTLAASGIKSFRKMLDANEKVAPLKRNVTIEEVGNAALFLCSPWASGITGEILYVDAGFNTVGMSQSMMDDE

Q: With `Cc1c(CN(C)C(=O)/C=C/c2cnc3c(c2)CC[C@H](N)C(=O)N3)oc2ccccc12` [(S)-11, (S,E)-3-(7-amino-8-oxo-6,7,8,9-tetrahydro-5H-pyrido[2,3-b]azepin-3-yl)-N-methyl-N-((3-methylbenzofuran-2-yl)methyl)acrylamide] as the compound, how does the “Plasma stability, t1/2, Mouse” value read?
A: 1.38 h

Q: What about the “stability in rat plasma (in words)” value (Plasma stability) of the same compound?
A: excellent stability

Q: What about the “Plasma protein binding, Human” value (Plasma protein binding; Human) of the same compound?
A: 94%

Q: What about the fraction unbound (Plasma protein binding; human, plasma) of the same compound?
A: 0.06

Q: What about the “fold change in Ki^app relative to Debio-1452-NH3” value (A. baumannii FabI; A. baumannii FabI, 3 vs. 114 nM) of the same compound?
A: > 30 fold

Q: What about the Ki (A. baumannii FabI; purified FabI, apparent inhibition constant, read-out: A. baumannii FabI Ki^app) of the same compound?
A: 0.003 µM

Q: What about the “fold more potent than (R)-11 against A. baumannii FabI” value (A. baumannii FabI; relative to opposite enantiomer (R)-11) of the same compound?
A: ~30 fold

Q: And the MIC (A. baumannii AR 0273)?
A: 4 µg/mL (≈ 9.89 µM)

Q: And the MIC (K. pneumoniae AR 0066)?
A: 4 µg/mL (≈ 9.89 µM)

Q: What about the MIC (K. pneumoniae AR 0560) of the same compound?
A: 4 µg/mL (≈ 9.89 µM)

Q: And the MIC (A. baumannii AR 0313)?
A: 4 µg/mL (≈ 9.89 µM)

Q: And the MIC (A. baumannii AR 0033)?
A: 8 µg/mL (≈ 19.8 µM)

Q: And the MIC (E. coli AR 0085)?
A: 1 µg/mL (≈ 2.47 µM)

Q: What about the MIC (E. coli AR 0048) of the same compound?
A: 2 µg/mL (≈ 4.94 µM)

Q: And the MIC (K. pneumoniae AR 0113)?
A: 4 µg/mL (≈ 9.89 µM)

Q: What about the MIC (A. baumannii AR 0299) of the same compound?
A: 2 µg/mL (≈ 4.94 µM)

Q: What about the inhibition at 30 µM (H. sapiens A549) of the same compound?
A: -1.2 ± 3.5%

Q: What about the IC50 (H. sapiens A549; cytotoxicity) of the same compound?
A: 114 ± 3 µM

Q: What about the “MIC E. coli ΔtolC” value (E. coli ΔtolC (JW5503)) of the same compound?
A: 0.016 µg/mL (≈ 0.0396 µM)

Q: And the MIC90 [1]?
A: 8 µg/mL (≈ 19.8 µM)
